Reference: PubChem BioAssay AID1259411 (Chemical Carcinogenesis Research Information System (CCRIS), 2018)
Activity calls are given as the source filed them. The rule behind the calls is not given here.

System: rodent carcinogenicity bioassays, tumor incidence
Assay: CCRIS carcinogenicity studies
Method in brief: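 NCI-built, expert-reviewed records of carcinogenicity and related test outcomes (mutagenicity, tumor promotion/inhibition) compiled from published and report sources, historical span 1985-2011, not updated.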

c1ccc2c(c1)ccc1[nH]c3ccc4ccccc4c3c12
carcinogen call (Species: HAMSTER, Route: INTRATRACHEAL, Tumor Site: Type of Lesion: LUNG): active; positive | carcinogen call (Species: MOUSE, Route: DERMAL, Tumor Site: Type of Lesion: INTEGUMENTARY SYSTEM (SKIN), LIVER): active; positive | carcinogen call (Species: MOUSE, Route: INTRAVENOUS, Tumor Site: Type of Lesion: LUNG): active; positive | carcinogen call (Species: MOUSE, Route: ORAL, Tumor Site: Type of Lesion: FORESTOMACH, LIVER, LUNG, Tumor Site: Type of Lesion: FORESTOMACH, LIVER, LUNG): active; positive | carcinogen call (Species: MOUSE, Route: SUBCUTANEOUS, Tumor Site: Type of Lesion: INJECTION SITE, LUNG): active; positive | carcinogen call (Species: MOUSE, Strain/Sex: HSD:ICR(BR)/FEMALE, Route: DERMAL, Dose: 0, 50 NMOL IN 50 µL ACETONE 2/WK FOR 99 WK (STUDY DURATION: 99 WK), Tumor Site: Type of Lesion: SKIN: TUMOR, LIVER: TUMOR): active; positive | carcinogen call (Species: MOUSE, Strain/Sex: STRAIN-A/MALE, Route: INTRAPERITONEAL, Dose: 0, 5, 10, 20, 40 MG/KG BW IN 0.2 ML TRICAPRYLIN ONCE (STUDY DURATION: 8 MO), Dose: 0, 5, 10, 20, 40 MG/KG BW IN 0.2 ML TRICAPRYLIN ONCE (STUDY DURATION: 8 MO), Tumor Site: Type of Lesion: LUNG: ADENOMA): active; positive | carcinogen call (Species: Mouse, Strain/Sex: XVIInc/Z homozygous/Female (50 or 162/Group), Route: Subcutaneous, Dose: 3 x 0.3 mg (162 animals) or 34 x 0.05 mg (50 animals) dissolved in olive oil, Tumor Site: Type of Lesion: Liver: Hepatoma (100%), Sarcoma (70%)): active; positive (historical controls only; reported incidence of liver tumors <2% at 2

ClC1=C(Cl)[C@]2(Cl)C3C(Cl)C(Cl)CC3[C@@]1(Cl)C2(Cl)Cl (stereo partly specified)
carcinogen call (Species: MOUSE, Strain/Sex: B6C3F1/FEMALE, Route: ORAL, Dose: 0, 30.1, 63.8 PPM IN DIET, TWA, Dose: 0, 30.1, 63.8 PPM IN DIET, TWA, Tumor Site: Type of Lesion: LIVER: HEPATOCELLULAR CARCINOMA): active; positive | carcinogen call (Species: MOUSE, Strain/Sex: B6C3F1/MALE, Route: ORAL, Dose: 0, 29.9, 56.2 PPM IN DIET, TWA, Dose: 0, 29.9, 56.2 PPM IN DIET, TWA, Tumor Site: Type of Lesion: LIVER: HEPATOCELLULAR CARCINOMA): active; positive | carcinogen call (Species: MOUSE, Strain/Sex: B6C3F1/MALE, Route: ORAL, Dose: 0, 55 PPM IN DIET BEGINNING AT 63 D OF AGE, AT 8 MO OF AGE DOSE INCREASED TO 60 PPM AND CONTINUED UNTIL 491 D OF AGE (ST, Tumor Site: Type of Lesion: LIVER: HEPATOCELLULAR ADENOMA, HEPATOCELLULAR CARCINOMA): active; positive | carcinogen call (Species: MOUSE, Strain/Sex: B6C3F1/MALE, Route: ORAL, Dose: 0, 55 PPM IN DIET BEGINNING AT 63 D OF AGE, AT 8 MO OF AGE DOSE WAS INCREASED TO 60 PPM FOR DURATION OF STUDY (STUDY DUR, Tumor Site: Type of Lesion: LIVER: HEPATOCELLULAR ADENOMA, HEPATOCELLULAR CARCINOMA): active; positive | carcinogen call (Species: MOUSE, Strain/Sex: B6D2F1/MALE, Route: ORAL, Dose: 0, 55 PPM IN DIET BEGINNING AT 63 D OF AGE, AT 8 MO OF AGE DOSE INCREASED TO 60 PPM AND CONTINUED UNTIL 491 D OF AGE (ST, Tumor Site: Type of Lesion: LIVER: HEPATOCELLULAR ADENOMA, HEPATOCELLULAR CARCINOMA): active; positive | carcinogen call (Species: MOUSE, Strain/Sex: B6D2F1/MALE, Route: ORAL, Dose: 0, 55 PPM IN DIET BEGINNING AT 63 D OF AGE, AT 8 MO OF AGE DOSE WAS INCREASED TO 60 PPM FOR DURATION OF STUDY (STUDY DUR, Tumor Site: Type of Lesion: LIVER: HEPATOCELLULAR ADENOMA, HEPATOCELLULAR CARCINOMA): active; positive | carcinogen call (Species: MOUSE, Strain/Sex: CD-1/MALE,FEMALE, Route: DIET, Dose: 0, 5, 25, 50 MG/KG FOR 18 MO, Tumor Site: Type of Lesion: LIVER: HEPATOCELLULAR CARCINOMA): active; positive | carcinogen call (Species: RAT, Strain/Sex: OSBORNE-MENDEL/FEMALE, Route: ORAL, Dose: 0, 120.8, 241.5PPM IN DIET, TWA, Dose: 0, 120.8, 241.5PPM IN DIET, TWA): inactive; negative | carcinogen call (Species: RAT, Strain/Sex: OSBORNE-MENDEL/MALE, Route: ORAL, Dose: 0, 203.5, 407.0PPM IN DIET, TWA, Dose: 0, 203.5, 407.0PPM IN DIET, TWA): inactive; negative

CCCCCN(N=O)C(N)=O
carcinogen call (Species: RAT, Strain/Sex: F344/FEMALE, Route: GAVAGE, Dose: 0, 16 MG/ML (TOTAL DOSE 0; 2 MMOL) IN 2 ML ETHYL ACETATE AND CORN OIL (1:2) 2/WK FOR 50 WK (STUDY DURATION: LIFETIME), Dose: 0, 16 MG/ML (TOTAL DOSE 0; 2 MMOL) IN 2 ML ETHYL ACETATE AND CORN OIL (1:2) 2/WK FOR 50 WK (STUDY DURATION: LIFETIME), Tumor Site: Type of Lesion: FORESTOMACH: SQUAMOUS CELL CARCINOMA, LUNG: TUMOR, UTERUS: TUMOR, Tumor Site: Type of Lesion: FORESTOMACH: SQUAMOUS CELL CARCINOMA, LUNG: TUMOR, UTERUS: TUMOR): active; positive | carcinogen call (Species: RAT, Strain/Sex: F344/FEMALE, Route: GAVAGE, Dose: 0, 16 MG/ML IN 0.2 ML ETHYL ACETATE AND CORN OIL 2/WK FOR 50 WK (STUDY DURATION: LIFESPAN), Tumor Site: Type of Lesion: FORESTOMACH: TUMOR, LUNG: TUMOR, UTERUS: TUMOR, Tumor Site: Type of Lesion: FORESTOMACH: TUMOR, LUNG: TUMOR, UTERUS: TUMOR): active; positive | carcinogen call (Species: RAT, Strain/Sex: F344/MALE, Route: GAVAGE, Dose: 0, 16 MG/ML (TOTAL DOSE 0; 2 MMOL) IN 2 ML ETHYL ACETATE AND CORN OIL (1:2) 2/WK FOR 50 WK (STUDY DURATION: LIFETIME), Dose: 0, 16 MG/ML (TOTAL DOSE 0; 2 MMOL) IN 2 ML ETHYL ACETATE AND CORN OIL (1:2) 2/WK FOR 50 WK (STUDY DURATION: LIFETIME), Tumor Site: Type of Lesion: FORESTOMACH: SQUAMOUS CELL CARCINOMA, LUNG: TUMOR, BODY CAVITY: MESOTHELIOMA, Tumor Site: Type of Lesion: FORESTOMACH: SQUAMOUS CELL CARCINOMA, LUNG: TUMOR, BODY CAVITY: MESOTHELIOMA): active; positive | carcinogen call (Species: RAT, Strain/Sex: F344/MALE, Route: GAVAGE, Dose: 0, 16 MG/ML IN 0.2 ML ETHYL ACETATE AND CORN OIL 2/WK FOR 50 WK (STUDY DURATION: LIFESPAN), Tumor Site: Type of Lesion: FORESTOMACH: TUMOR, LUNG: TUMOR: PERITONEUM: MESOTHELIOMA, SKIN: TUMOR, Tumor Site: Type of Lesion: FORESTOMACH: TUMOR, LUNG: TUMOR: PERITONEUM: MESOTHELIOMA, SKIN: TUMOR): active; positive
